In patent publication US11759436B2, “Dosage regimen of an S1P receptor modulator” (Novartis AG, priority 2009, dated 2023):

What was measured:
[1] = test system: patients with Relapsing-remitting Multiple Sclerosis; experiment: Study of oral fingolimod 0.5 mg/day or 1.25 mg/day vs interferon beta1-a in patients with RRMS; format: in vivo, human
Experimental: The patients are seen clinically every month for 3 months and every 3 months thereafter. The Expanded Disability Status Scale (EDSS) is performed every 3 months, the MS Functional Composite (MSFC) every 6 months, and MRI annually. Monitoring by ophthalmic examination, dermatologic examination, pulmonary function tests, chest X-ray and/or CT, Holter monitoring, and echocardiography are performed. Participants who completed 1 year on treatment are offered an optional extension phase.

[2] = test system: Cardiac Rate and Rhythm in Healthy Patients; details: administration of 1.25 mg of FTY720; healthy subjects; cited from earlier work
[3] = test system: Patients with moderate asthma; experiment: Study of FTY720 vs placebo in patients with moderate asthma (pulmonary function tests, safety); format: in vivo, human; details: daily dosage of 0.5 mg, 10 day treatment
Experimental: Patients with moderate asthma are divided into 3 dosing cohorts of 12 patients each. In each cohort, the 12 patients are randomized to FTY720 (0.5 mg, 1.25 mg, and 2.5 mg in cohorts 1, 2, and 3 respectively) or placebo in a 3:1 ratio resulting in 9 patients treated with FTY720 at each dose level and 9 patients treated with placebo. The study consists of a screening period of between 12 and 26 days, baseline and a 10 day treatment period followed by a study completion evaluation (performed 1-7 days after the last dose). Two screening visits are performed, the initial Screening visit and a second visit at Day −7 (+/−1 day). […] Short-acting […] agonist use prior to treatment with study medication is also recorded in this 14 day period. […] PFT profiling is assessed at 7 time points during the visit and routine baseline evaluations are performed. On Day 1, patients are randomized in a 3:1 ratio to FTY720 or placebo and PFT profiling is assessed at 8 time points (namely pre-dose, then at 1, 2, 3, 4, 5, 6 and 12 hours post-dose). PFT assessments are also performed on Days 2, 3, 7 (all single time points assessed at approximately the same clock time as the 6 hours post-dose PFT on Day 1) and Day 10 (7 time points, namely pre-dose and then at 1, 2, 3, 4, 5 and 6 hours post-dose). […] The magnitude of the bronchoconstriction is primarily assessed by the baseline-adjusted FEV1 AUC0-6 h on Day 1. […]

[4] = both fingolimod groups (0.5 and 1.25 mg/day), month 12

Basal-cell carcinoma ([1]; fingolimod 0.5 mg/d): 3 (0.7) n (%) | Breast cancer ([1]; fingolimod 0.5 mg/d): 2 (0.5) n (%) | Malignant melanoma ([1]; fingolimod 0.5 mg/d): 3 (0.7) n (%) | Squamous-cell carcinoma ([1]; fingolimod 0.5 mg/d): 0 n (%) | Basal-cell carcinoma ([1]; fingolimod 1.25 mg/day): 2 (0.5) n (%) | Breast cancer ([1]; fingolimod 1.25 mg/day): 2 (0.5) n (%) | Malignant melanoma ([1]; fingolimod 1.25 mg/day): 0 n (%) | Squamous-cell carcinoma ([1]; fingolimod 1.25 mg/day): 0 n (%)
SMILES: CCCCCCCCc1ccc(CCC(N)(CO)CO)cc1.Cl [Fingolimod, 2-amino-2-[2-(4-octylphenyl)ethyl]propane-1,3-diol]
proportion of relapse-free patients ([1]; RRMS patients, fingolimod, dose not stated): 83% | reduction in relapses vs interferon beta1-a ([1]; RRMS patients, higher dose (1.25 mg/day)): 38% | reduction in relapses vs interferon beta1-a ([1]; RRMS patients, lower dose (0.5 mg/day)): 52% | Annualized relapse rate ([1]; RRMS patients, oral fingolimod 0.5 mg/day): 0.16 | Annualized relapse rate ([1]; RRMS patients, oral fingolimod 1.25 mg/day): 0.20 | MRI lesion activity: number of gadolinium-enhancing T1 lesions [1, 4]: reduction | MRI lesion activity: number of new or newly enlarging T2 lesions [1, 4]: reduction | decrease in heart rate [2]: approximately 8 beets/min | safety and tolerability [3]: safe and well tolerated
